From patent publication US9944600B2, “Piperidine derivatives for GPR119 agonist” (CHONG KUN DANG PHARMACEUTICAL CORP., priority 2012, dated 2018)

Target: T1, human GPR119 receptor (Homo sapiens, UniProt Q8TDV5)
T1 construct: host or cells: GeneBLAzer T-Rex GPR 119 CHO-K1 DA cells (CHO-K1)
T1 sequence (Q8TDV5 1-335): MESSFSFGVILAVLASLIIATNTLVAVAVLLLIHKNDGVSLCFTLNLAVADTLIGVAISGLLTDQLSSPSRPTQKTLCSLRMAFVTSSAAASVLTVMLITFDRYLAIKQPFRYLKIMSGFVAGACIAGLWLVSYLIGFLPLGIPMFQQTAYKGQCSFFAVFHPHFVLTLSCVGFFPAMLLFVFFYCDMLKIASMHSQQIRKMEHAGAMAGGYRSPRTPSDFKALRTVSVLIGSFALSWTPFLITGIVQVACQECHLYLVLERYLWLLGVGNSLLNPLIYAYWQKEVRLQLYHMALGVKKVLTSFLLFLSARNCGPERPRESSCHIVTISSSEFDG
Experiment: Activity test for human GPR119 receptor (GeneBLAzer T-Rex GPR 119 CHO-K1 DA cells, fluorescence reporter)
Format: cell-based
Details: human GPR119 CHO-K1 reporter cells, 5 hours treatment, ratio to vehicle control well, read-out: % Activation; for activity at 0.1 µM: test compound conc. 0.1 μM; for activity at 1 µM: test compound conc. 1 μM; for activity at 10 µM: test compound conc. 10 μM
Protocol: As a human GPR119 receptor expression cell for this test, the cell line “GeneBLAzer™ T-Rex GPR 119 CHO-K1 DA cells” that is commercially available from Invitrogen, was used. The cell was incubated in the DMEM media containing 1% dialyzed fetal bovine serum etc. The cell incubator was kept at constant temperature and constant humidity of 37° C., 5% CO2.
The human GPR119 receptor expressing cell was used to this test. Each of test compounds was added to be final concentrations of 0.1, 1, 10 μM in 96 well and tested in duplicate. A fixed amount of cell was added to each well of 96 well separately, and then treated with the test compound for 5 hours. After treatment of color development agent for 2 hours, the fluorescence value was determined with plate reader. To the luminous wavelength of control well, which was not treated with the agonist sample, but in which only a vehicle (i.e., cell) was contained, the ratio of the luminous wavelength of test well, which was treated with the agonist sample, was calculated, and then converted to obtain % value.
All the results were expressed as mean±SD, and each test groups and the control group were compared using student's t-test to adjudge the effects of each test groups.

Compound | activity at 0.1 µM [%] | activity at 1 µM [%] | activity at 10 µM [%]
CS(=O)(=O)c1ccc(-c2ccc(OCC3CCN(CC4(C(F)(F)F)CC4)CC3)cc2)cc1 [Compound 500, 4-((4′-(methylsulfonyl)biphenyl-4-yloxy)methyl)-1-((1-(trifluoromethyl)cyclopropyl)methyl)piperidine] | 214 | 298 | 310
CC(C)(F)CN1CCC(COc2ccc(-c3ccc(C(=O)N4CCOCC4)cc3)cc2)CC1 [Compound 517, (4′-((1-(2-fluoro-2-methylpropyl)piperidin-4-yl)methoxy)biphenyl-4-yl)(morpholino)methanone] | 192 | 244 | 291
CS(=O)(=O)c1ccc(-c2ccc(OCC3CCN(CC4(C(F)(F)F)CCC4)CC3)cc2)cc1 [Compound 542, 4-((4′-(methylsulfonyl)biphenyl-4-yloxy)methyl)-1-((1-(trifluoromethyl)cyclobutyl)methyl)piperidine] | 256 | 347 | 376
CN(CCO)C(=O)c1ccc(-c2ccc(OCC3CCN(CC(C)(C)F)CC3)cc2)cc1 [Compound 551, 4′-((1-(2-fluoro-2-methylpropyl)piperidin-4-yl)methoxy)-N-(2-hydroxyethyl)-N-methylbiphenyl-4-carboxamide] | 135 | 232 | 288
CC(C)(F)CN1CCC(COc2ccc(-c3ccc(C(=O)N4CC[C@@H](O)C4)cc3)cc2)CC1 [Compound 553, (R)-(4′-((1-(2-fluoro-2-methylpropyl)piperidin-4-yl)methoxy)biphenyl-4-yl)(3-hydroxypyrrolidine-1-yl)methanone] | 149 | 204 | 253
CC(C)(F)CN1CCC(COc2ccc(-c3ccc(C(=O)N4CC[C@H](O)C4)cc3)cc2)CC1 [Compound 554, (S)-(4′-((1-(2-fluoro-2-methylpropyl)piperidin-4-yl)methoxy)biphenyl-4-yl)(3-hydroxypyrrolidine-1-yl)methanone] | 141 | 219 | 279
CC(C)(F)CN1CCC(COc2ccc(-c3ccc(C(=O)N4CCC[C@@H]4CO)cc3)cc2)CC1 [Compound 555, (R)-(4′-((1-(2-fluoro-2-methylpropyl)piperidin-4-yl)methoxy)biphenyl-4-yl)(2-(hydroxymethyl)pyrrolidine-1-yl)methanone] | 190 | 269 | 272
O=C(c1ccc(-c2ccc(OCC3CCN(CC4(C(F)(F)F)CC4)CC3)nc2)cc1)N1CCC(CO)CC1 [Compound 587, (4-(hydroxymethyl)piperidin-1-yl)(4-(6-((1-((1-(trifluoromethyl)cyclopropyl)methyl)piperidin-4-yl)methoxy)pyridine-3-yl)phenyl)methanone] | 227 | 288 | 297
CC(=O)N1CCN(C(=O)c2ccc(-c3ccc(OCC4CCN(CC(C)(C)F)CC4)cc3)cc2)CC1 [Compound 628, 1-(4-(4′-((1-(2-fluoro-2-methylpropyl)piperidin-4-yl)methoxy)biphenylcarbonyl)piperazin-1-yl)ethanone] | 138 | 210 | 257
CC(C)(F)CN1CCC(COc2ccc(-c3ccc(C(=O)N4CCC(F)(F)C4)cc3)cc2)CC1 [Compound 629, (3,3-difluoropyrrolidine-1-yl)(4′-((1-(2-fluoro-2-methylpropyl)piperidin-4-yl)methoxy)biphenyl-4-yl)methanone] | 199 | 229 | 269
NC(=O)[C@@H]1CCCN1C(=O)c1ccc(-c2ccc(OCC3CCN(CC4(C(F)(F)F)CCC4)CC3)cc2)cc1 [Compound 635, (S)-1-(4′-((1-((1-(trifluoromethyl)cyclobutyl)methyl)piperidin-4-yl)methoxy)biphenylcarbonyl)pyrrolidine-2-carboxamide] | 265 | 305 | 239
CC(C)(F)CN1CCC(COc2ccc(-c3ccc(C(=O)N4CCC[C@@H]4CO)c(F)c3)cc2)CC1 [Compound 641, (R)-(3-fluoro-4′-((1-(2-fluoro-2-methylpropyl)piperidin-4-yl)methoxy)biphenyl-4-yl)(2-(hydroxymethyl)pyrrolidine-1-yl)methanone] | 167 | 220 | 246
CC(C)(F)CN1CCC(COc2ccc(-c3ccc(C(=O)N4CCC[C@H]4C(N)=O)c(F)c3)cc2)CC1 [Compound 644, (S)-1-(3-fluoro-4′-((1-(2-fluoro-2-methylpropyl)piperidin-4-yl)methoxy)biphenylcarbonyl)pyrrolidine-2-carboxamide] | 213 | 295 | 294
O=C(c1ccc(-c2ccc(OCC3CCN(CC4(C(F)(F)F)CCC4)CC3)nc2)cc1F)N1CC[C@H](O)C1 [Compound 720, (8)-(2-fluoro-4-(6-((1-((1-(trifluoromethyl)cyclobutyl)methyl)piperidin-4-yl)methoxy)pyridine-3-yl)phenyl)(3-hydroxypyrrolidine-1-yl)methanone] | 160 | 228 | 262
NC(=O)[C@@H]1CCCN1C(=O)c1ccc(-c2ccc(OCC3CCN(CC4(C(F)(F)F)CCC4)CC3)nc2)cc1F [Compound 722, (S)-1-(2-fluoro-4-(6-((1-((1-(trifluoromethyl)cyclobutyl)methyl)piperidin-4-yl)methoxy)pyridine-3-yl)benzoyl)pyrrolidine-2-carboxamide] | 198 | 269 | 261
O=C(c1ccc(-c2ccc(OCC3CCN(CC4(C(F)(F)F)CCC4)CC3)cc2)cc1)N1CCC[C@@H](O)C1 [Compound 794, (R)-(3-hydroxypiperidin-1-yl)(4′-((1-((1-(trifluoromethyl)cyclobutyl)methyl)piperidin-4-yl)methoxy)biphenyl-4-yl)methanone] | 256 | 296 | 252
CC(C)(CN1CCC(COc2ccc(-c3ccc(C(=O)N4CCC[C@@H](O)C4)cc3)cn2)CC1)C(F)(F)F [Compound 829, (R)-(3-hydroxypiperidin-1-yl)(4-(6-((1-(3,3,3-trifluoro-2,2-dimethylpropyl)piperidin-4-yl)methoxy)pyridin-3-yl)phenyl)methanone] | 257 | 313 | 303
NC(=O)[C@@H]1CCCN1C(=O)c1ccc(-c2ccc(OCC3CCN(CC4(C(F)(F)F)CCC4)CC3)c(F)c2)cc1 [Compound 837, (S)-1-(3′-fluoro-4′-((1-((1-(trifluoromethyl)cyclobutyl)methyl)piperidin-4-yl)methoxy)biphenylcarbonyl)pyrrolidine-2-carboxamide] | 251 | 296 | 306
NC(=O)[C@H]1CCCCN1C(=O)c1ccc(-c2ccc(OCC3CCN(CC4(C(F)(F)F)CCC4)CC3)c(F)c2)cc1 [Compound 886, (R)-1-(3′-fluoro-4′-((1-((1-(trifluoromethyl)cyclobutyl)methyl)piperidin-4-yl)methoxy)biphenylcarbonyl)piperidin-2-carboxamide] | 164 | 241 | 246
